In patent publication US6982258B2, “Low-calcemic oxime analogs of 1α,25-dihydroxy vitamin D3” (Cytochroma Inc., priority 2001, dated 2006):

Experiments:
[1] = Calcium excretion (hypercalcemia assay, rat urine); assay type: in vivo; details: administered orally daily for one week
Method: As a measure of their safety in animals, compound of Formula I(a) was administered orally to rats daily for 1 week at a similar dose (0.5 microgram/Kg body weight) to calcitriol, using a procedure described previously (Posner G. H. et al. J. Med. Chem. 1999, 42, 3425-3435). A graph showing the effect of compound I(a) (indicated as BH 1625(NOH)) on calcium levels in rat urine in comparison to calcitriol (1α,25-Dihydroxy vitamin D3) is shown in FIG. 6.

[2] = target: T1, CYP24 (Homo sapiens, UniProt Q07973); assay: CYP24 enzyme assay (induced HPK1A-ras cells); assay type: cell-based; details: ketoconazole as control standard
T1 construct: When the HPK1A-ras cells were 80-90% confluent, add 1 μL 10^−5 M 1,25(OH)2D3; endogenous in cells; host or cells: HPK1A-ras cells induced with 10^-8 M 1,25(OH)2D3
T1 sequence (Q07973 36-514): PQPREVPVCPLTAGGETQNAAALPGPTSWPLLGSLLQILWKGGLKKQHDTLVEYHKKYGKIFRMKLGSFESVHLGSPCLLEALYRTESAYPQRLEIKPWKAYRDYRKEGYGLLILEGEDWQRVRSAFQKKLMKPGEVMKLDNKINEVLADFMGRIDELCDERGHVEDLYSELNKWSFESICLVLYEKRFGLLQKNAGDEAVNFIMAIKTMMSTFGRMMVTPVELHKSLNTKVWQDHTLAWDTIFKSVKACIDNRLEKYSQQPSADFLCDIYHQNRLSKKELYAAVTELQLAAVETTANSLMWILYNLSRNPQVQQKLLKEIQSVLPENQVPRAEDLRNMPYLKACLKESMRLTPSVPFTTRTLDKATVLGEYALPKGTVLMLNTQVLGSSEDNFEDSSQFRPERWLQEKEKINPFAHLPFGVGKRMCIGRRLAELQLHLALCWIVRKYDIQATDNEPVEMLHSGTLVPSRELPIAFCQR
Method: CYP24 Enzyme Assay (Induced […] Cells)
• 1,25(OH)2D3 10^−5 M • [^3H]-1,25(OH)2D3 25,000 CPM/μL • HPK1A-ras cells • 48-well plate • Methanol • Dichlorimethane • Saturated KCI:KCI 30 g, H2O400 ml (ii) Procedure: • 1. Induction of HPK1A-ras cells (The day before assay) • When the HPK1A-ras cells were 80-90% confluent, add 1 μL 10^−5 M 1,25(OH)2D3 to 1 mL medium in the plate (final concentration is 10^−8 M). • 2. Preparation of cell suspension • After 18 to 20 hours induction, removed the medium and washed the cell twice with PBS. Then tripsinized the cells from plate, centrifuge (2,000 rpm, 5 min) and suspended cells pellet in DMEM medium+1% BSA. • Counted the cells and adjust cells density to 250,000/150 μL, add 150 μL cell suspension to each well in 48-well plate. (including 3 wells as no cell control, and 3 well cells without drug or inhibitor as control). • 3. Added 25 μL ketoconazole (final concentration 10^−5 M, 10^−6 M, 10^−7 M, 10^−8 M) or drugs into each designated well. Keep the plate in 37° C. for 10 min. • 4. Preparation of substrate • Took certain amount of DMEM+1% BSA medium (25*Well number+200)μL to a tube, added certain amount of ^3H-1,25(OH)2D3 (well number+2) μL and certain amount of 100 mM DPPD (well number/5)μL and mixed them by vortex. • 5. Incubation • Added 25 μL substrate to each well, incubated the plate at 37° C. for 3 hour. • Added 25 μL substrate to counting plate (2 well) as a total count. • 6. Lipid extraction and counting • Added 500 μL methanol to each well to stop the reaction, transfered them to tube • Added 250 μL dichloromethane and vortex. • Added 250 μL dichloromethane and 250 μL saturated KCI, and vortexed. • Centrifuged at 4000 rpm for 5 min. • Transfered 100 μL of aqueous phase (upper phase) to counting plastic counting plate. Added 600 μL of scintillation fluid to each well. Counted the plate in scintillation counter. • 7. Calculation enzyme activity • CPM of cell control after subtraction of CPM of NCC is as 100% enzyme activity. • Enzyme activity=(CPM in test compounds well−CPM in NCC well)/(CPM in Cell control−CPM in NCC well)* 100% • Dilution of Ketoconazole • Stock 10^−2 M
• Dilution of test compounds • Stock 10^−3 M

In the case of `C=C1/C(=C\C=C2/CCC[C@]3(C)[C@@H]([C@H](C)CCCC(C)(C)O)CC[C@@H]23)C[C@@H](O)C[C@@H]1O` [calcitriol, 1α,25-Dihydroxy vitamin D3], the “levels of calcium in the urine” value [1] is reported as “significant increase in calcium levels in the urine”.

For `C=CCO/N=C(\CCC[C@@H](C)C1=CC[C@H]2/C(=C/C=C3/C[C@@H](O)C[C@H](O)C3=C)CCC[C@]12C)C(C)(C)C` [I(g)], the “inhibition of CYP24 activity compared to ketoconazole” value (shortened to “inhibition … compared to ketoconazole”) [2] was “significantly greater inhibition of CYP24 than ketoconazole”.

For `C=C1/C(=C\C=C2/CCC[C@]3(C)C([C@H](C)CCC/C(=N\O)C(C)(C)C)=CC[C@@H]23)C[C@@H](O)C[C@@H]1O` [I(a)], the “inhibition … compared to ketoconazole” value [2] was “significantly greater inhibition of CYP24 than ketoconazole”.

For `C=C1/C(=C\C=C2/CCC[C@]3(C)C([C@H](C)CCC/C(=N\OC)C(C)(C)C)=CC[C@@H]23)C[C@@H](O)C[C@@H]1O` [I(c)], the “inhibition … compared to ketoconazole” value [2] was “significantly greater inhibition of CYP24 than ketoconazole”.

For `C=C1/C(=C\C=C2/CCC[C@]3(C)C([C@H](C)CCC/C(=N\OCC)C(C)(C)C)=CC[C@@H]23)C[C@@H](O)C[C@@H]1O` [I(e)], the “inhibition … compared to ketoconazole” value [2] was “significantly greater inhibition of CYP24 than ketoconazole”.

With `C=C1/C(=C\C=C2/CCC[C@]3(C)C([C@H](C)CCC/C(=N\Oc4ccccc4)C(C)(C)C)=CC[C@@H]23)C[C@@H](O)C[C@@H]1O` [I(i)] the “inhibition … compared to ketoconazole” value [2] was “significantly greater inhibition of CYP24 than ketoconazole”.
